Measurements published in patent US9493435B2, “IRE-1α inhibitors” (MannKing Corporation, priority 2009, dated 2016).

What follows are compounds tested on IRE-1α-mediated XBP-1 splicing in human myeloma MM.1s cells (assay: Cellular XBP-1 splicing assay in myeloma cells (RT-PCR)). Details: Homo sapiens, MM1.S; average EC50, endogenous XBP-1 splicing in myeloma cells, DTT stress.
Type: cell-based
Experimental: After an additional 45 minutes (2 hours total) with compound and DTT, the cells are harvested with TRIZOL® (a mono-phasic solution of phenol and guanidine isothiocyanate), and total RNA is prepared as directed by the manufacturer (Invitrogen). Human XBP-1 is amplified by RT-PCR with the following primers, which flank the 26 base unconventional intron excised by IRE-1α:
RT-PCR of unstressed (U) cells then generates the upper band. When cells are stressed (S) with the endoplasmic reticulum (ER) stressing agent DTT, IRE-1α is activated due to accumulating unfolded protein and the resulting RT-PCR product is 26 base pairs shorter.
Compounds which pass specificity assays are assayed for cellular EC50 using endogenous XBP-1 splicing in myeloma cells. XBP-1 is regulated through the excision of a 26 nucleotide intron from the XBP-1 mRNA by the highly specific endoribonuclease activity of IRE-1α. […] This splicing event is used to measure IRE-1α activity on XBP-1 mRNA in cells and tissues.
Briefly, compounds are incubated in the presence or absence of an ER stress agent (e.g., DTT), and the ratio of XBP-1u (unspliced) to XBP-1s (spliced) is quantified by RT-PCR.

| SMILES | EC50 |
| --- | --- |
| O=Cc1c(O)ccc2cc(-c3ccc(C(=O)NCC4CCCNC4)s3)ccc12 (stereo not drawn) [Compound 42] | < 10 µM |
| O=Cc1c(O)ccc2cc(-c3ccc(C(=O)NCC4CCCCN4)s3)ccc12 (stereo not drawn) [Compound 41] | < 10 µM |
| O=Cc1c(O)ccc2ccc(N3CCOCC3)cc12 [Compound 88] | < 10 µM |
| O=Cc1c(O)ccc2cc(-c3ccc(C(=O)N4CCOCC4)cn3)ccc12 [Compound 101] | > 10 µM |
| CN1CCN(c2ccc3ccc(O)c(C=O)c3c2)CC1 [Compound 87] | > 10 µM |
| CN1CCCCC1CNC(=O)c1ccc(-c2ccc3c(C=O)c(O)ccc3c2)s1 (stereo not drawn) [Compound 62] | < 10 µM |
| CN1CCN(C(=O)/C=C/c2ccc3c(C=O)c(O)ccc3c2)CC1 [Compound 63] | < 10 µM |
| CN1CCN(C(=O)c2ccc(Cl)c(-c3ccc4c(C=O)c(O)ccc4c3)c2)CC1 [Compound 27] | > 10 µM |
| O=Cc1c(O)ccc2cc(N3CCC(C(=O)N4CCCCC4)C3)ccc12 (stereo not drawn) [Compound 129] | > 10 µM |
| O=Cc1c(O)ccc2ccc(N3CCC(C(=O)N4CCCCC4)C3)cc12 (stereo not drawn) [Compound 133] | > 10 µM |
| O=Cc1c(O)ccc2cc(Oc3ccc(C(=O)O)cc3)ccc12 [Compound 182] | < 10 µM |
| CN1CCN(c2nc(-c3ccc4c(C=O)c(O)ccc4c3)cs2)CC1 [Compound 120] | 10 µM |
| O=Cc1c(O)ccc2cc(CCC(=O)O)ccc12 [Compound 39] | > 10 µM |
| CC(=O)NC1CCN(c2ccc3c(C=O)c(O)ccc3c2)CC1 [Compound 84] | > 10 µM |
| O=Cc1c(O)ccc2cc(N3CCC(C(=O)N4CCOCC4)C3)ccc12 (stereo not drawn) [Compound 111, 2-Hydroxy-6-[3-(morpholine-4-carbonyl)-pyrrolidin-1-yl]-naphthalene-1-carbaldehyde] | > 10 µM |
| CN(C)C(=O)c1ccc(-c2ccc3c(C=O)c(O)ccc3c2)s1 [Compound 12] | 10 µM |
| CN(Cc1ccccc1)C1CCN(c2ccc3ccc(O)c(C=O)c3c2)C1 (stereo not drawn) [Compound 152] | > 10 µM |
| COCc1cn(-c2ccc3c(C=O)c(O)ccc3c2)nn1 [Compound 105] | < 10 µM |
| O=Cc1c(O)ccc2cc(N3CCC(NCc4ccccc4)CC3)ccc12 [Compound 97] | > 10 µM |
| COCCNCCNC(=O)c1ccc(-c2ccc3c(C=O)c(O)ccc3c2)cn1 [Compound 125] | < 10 µM |
| O=Cc1c(O)ccc2cc(N3CCCC(NCc4ccccn4)C3)ccc12 (stereo not drawn) [Compound 108] | > 10 µM |
| CNC(=O)c1ccc(-c2ccc3c(C=O)c(O)ccc3c2)cc1 [Compound 9] | > 10 µM |
| NCCOCCOCCNC(=O)c1ccc(-c2ccc3c(C=O)c(O)ccc3c2)s1 [Compound 45] | < 10 µM |
| CN1CCN(C(=O)c2cncc(-c3ccc4c(C=O)c(O)ccc4c3)c2)CC1 [Compound 67] | < 10 µM |
| N#Cc1ccc(Oc2ccc3c(C=O)c(O)ccc3c2)cc1 [Compound 181] | < 10 µM |
| CNC(=O)c1ccc(-c2ccc3c(C=O)c(O)ccc3c2)s1 [Compound 11] | 10 µM |
| O=Cc1c(O)ccc2cc(-c3ccc(C(=O)NC4CCNC4)s3)ccc12 (stereo not drawn) [Compound 73] | < 10 µM |
| O=Cc1c(O)ccc2cc(N3CCN(Cc4ccccc4)CC3)ccc12 [Compound 95] | > 10 µM |
| O=Cc1c(O)ccc2cc(N3CCCC3)ccc12 [Compound 59] | > 10 µM |
| CN1CCCC(NC(=O)c2ccc(-c3ccc4c(C=O)c(O)ccc4c3)s2)C1 (stereo not drawn) [Compound 78] | < 10 µM |

The compounds below were run against human IRE-1α (GST-IRE-1α) (Homo sapiens (Human), UniProt O75460) (assay: IRE-1α assay (cleavage of mini-XBP-1 mRNA stem-loop substrate)). Details: average IC50 for inhibition of IRE-1α in vitro.
Type: biochemical
Experimental: A fusion protein comprising glutathione S transferase (GST) and human IRE-1α (GST-IRE-1α) obtained from a 500 ml baculovirus-infected insect cell culture can be used to measure IRE-1α activity in vitro. Five μl of a reaction mixture comprising 1× reaction buffer (5× reaction buffer is 100 mM Hepes pH 7.5, 250 mM KOAc, 2.5 mM MgCl2), 3 mM DTT, and 0.4% polyethylene glycol water is added to each well of 384 well plates. Twenty-five nanoliters of a 1 mM test compound solution are added to test wells. […] Negative control wells contain only reaction mixture and test compound. After spinning the plates at 1200 rpm for 30 seconds, 3 μl of an IRE-1α human mini-XBP-1 mRNA stem-loop substrate [NT] ID NO:1), labeled with the fluorescent dye Cy5 at the [NT] end, are added to each well of a control plate. The plates are again spun at 1200 rpm for 30 seconds. […] The plates are covered with lids and incubated for one hour at 30° C. The plates are then transferred to an […] microplate reader. Data is analyzed using data analysis software, and the percent activity of IRE-1α is calculated.

Chain of human IRE-1α (GST-IRE-1α) (O75460 19-977): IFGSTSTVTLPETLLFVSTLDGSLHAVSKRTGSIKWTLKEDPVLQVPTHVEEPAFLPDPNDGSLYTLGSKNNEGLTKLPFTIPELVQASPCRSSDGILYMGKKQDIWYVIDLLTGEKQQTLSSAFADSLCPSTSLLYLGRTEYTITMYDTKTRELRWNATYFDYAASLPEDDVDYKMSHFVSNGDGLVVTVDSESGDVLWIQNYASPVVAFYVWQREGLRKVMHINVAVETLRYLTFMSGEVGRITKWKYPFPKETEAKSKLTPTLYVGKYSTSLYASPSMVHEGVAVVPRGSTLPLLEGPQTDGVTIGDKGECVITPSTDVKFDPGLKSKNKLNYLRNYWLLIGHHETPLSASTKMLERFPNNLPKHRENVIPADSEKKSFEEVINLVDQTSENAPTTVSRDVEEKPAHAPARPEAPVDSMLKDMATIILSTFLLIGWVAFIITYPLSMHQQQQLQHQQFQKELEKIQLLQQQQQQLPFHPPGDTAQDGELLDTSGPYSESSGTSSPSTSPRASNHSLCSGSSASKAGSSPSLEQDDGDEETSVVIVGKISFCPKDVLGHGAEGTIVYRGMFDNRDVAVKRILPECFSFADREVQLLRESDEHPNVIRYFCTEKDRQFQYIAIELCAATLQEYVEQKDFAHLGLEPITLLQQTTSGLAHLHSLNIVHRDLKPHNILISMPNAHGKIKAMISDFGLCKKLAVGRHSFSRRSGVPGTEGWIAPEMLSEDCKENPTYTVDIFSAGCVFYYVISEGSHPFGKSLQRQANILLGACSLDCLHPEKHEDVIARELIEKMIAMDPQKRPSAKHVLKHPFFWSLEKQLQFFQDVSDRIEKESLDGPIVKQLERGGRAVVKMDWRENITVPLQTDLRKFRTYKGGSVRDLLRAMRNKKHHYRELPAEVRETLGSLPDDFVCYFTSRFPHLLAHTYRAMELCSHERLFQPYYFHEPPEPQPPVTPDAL

| SMILES | IC50 |
| --- | --- |
| O=Cc1c(O)ccc2cc(-c3ccc(C(=O)NCC4CCCNC4)s3)ccc12 (stereo not drawn) [Compound 42] | < 0.1 µM |
| O=Cc1c(O)ccc2cc(-c3ccc(C(=O)NCC4CCCCN4)s3)ccc12 (stereo not drawn) [Compound 41] | < 0.1 µM |
| O=Cc1c(O)ccc2ccc(N3CCOCC3)cc12 [Compound 88] | > 1 µM |
| O=Cc1c(O)ccc2cc(-c3ccc(C(=O)N4CCOCC4)cn3)ccc12 [Compound 101] | < 1 µM |
| CN1CCN(c2ccc3ccc(O)c(C=O)c3c2)CC1 [Compound 87] | > 1 µM |
| CN1CCCCC1CNC(=O)c1ccc(-c2ccc3c(C=O)c(O)ccc3c2)s1 (stereo not drawn) [Compound 62] | < 0.1 µM |
| CN1CCN(C(=O)/C=C/c2ccc3c(C=O)c(O)ccc3c2)CC1 [Compound 63] | < 1 µM |
| CN1CCN(C(=O)c2ccc(Cl)c(-c3ccc4c(C=O)c(O)ccc4c3)c2)CC1 [Compound 27] | < 1 µM |
| O=Cc1c(O)ccc2cc(N3CCC(C(=O)N4CCCCC4)C3)ccc12 (stereo not drawn) [Compound 129] | > 1 µM |
| O=Cc1c(O)ccc2ccc(N3CCC(C(=O)N4CCCCC4)C3)cc12 (stereo not drawn) [Compound 133] | > 1 µM |
| O=Cc1c(O)ccc2cc(Oc3ccc(C(=O)O)cc3)ccc12 [Compound 182] | < 0.1 µM |
| CN1CCN(c2nc(-c3ccc4c(C=O)c(O)ccc4c3)cs2)CC1 [Compound 120] | < 1 µM |
| O=Cc1c(O)ccc2cc(CCC(=O)O)ccc12 [Compound 39] | < 1 µM |
| CC(=O)NC1CCN(c2ccc3c(C=O)c(O)ccc3c2)CC1 [Compound 84] | < 1 µM |
| O=Cc1c(O)ccc2cc(N3CCC(C(=O)N4CCOCC4)C3)ccc12 (stereo not drawn) [Compound 111, 2-Hydroxy-6-[3-(morpholine-4-carbonyl)-pyrrolidin-1-yl]-naphthalene-1-carbaldehyde] | < 1 µM |
| CN(C)C(=O)c1ccc(-c2ccc3c(C=O)c(O)ccc3c2)s1 [Compound 12] | < 1 µM |
| CN(Cc1ccccc1)C1CCN(c2ccc3ccc(O)c(C=O)c3c2)C1 (stereo not drawn) [Compound 152] | > 1 µM |
| COCc1cn(-c2ccc3c(C=O)c(O)ccc3c2)nn1 [Compound 105] | < 1 µM |
| O=Cc1c(O)ccc2cc(N3CCC(NCc4ccccc4)CC3)ccc12 [Compound 97] | < 1 µM |
| COCCNCCNC(=O)c1ccc(-c2ccc3c(C=O)c(O)ccc3c2)cn1 [Compound 125] | < 0.1 µM |
| O=Cc1c(O)ccc2cc(N3CCCC(NCc4ccccn4)C3)ccc12 (stereo not drawn) [Compound 108] | > 1 µM |
| CNC(=O)c1ccc(-c2ccc3c(C=O)c(O)ccc3c2)cc1 [Compound 9] | > 1 µM |
| NCCOCCOCCNC(=O)c1ccc(-c2ccc3c(C=O)c(O)ccc3c2)s1 [Compound 45] | < 1 µM |
| CN1CCN(C(=O)c2cncc(-c3ccc4c(C=O)c(O)ccc4c3)c2)CC1 [Compound 67] | < 1 µM |
| N#Cc1ccc(Oc2ccc3c(C=O)c(O)ccc3c2)cc1 [Compound 181] | < 1 µM |
| CNC(=O)c1ccc(-c2ccc3c(C=O)c(O)ccc3c2)s1 [Compound 11] | < 1 µM |
| O=Cc1c(O)ccc2cc(-c3ccc(C(=O)NC4CCNC4)s3)ccc12 (stereo not drawn) [Compound 73] | < 0.1 µM |
| O=Cc1c(O)ccc2cc(N3CCN(Cc4ccccc4)CC3)ccc12 [Compound 95] | > 1 µM |
| O=Cc1c(O)ccc2cc(N3CCCC3)ccc12 [Compound 59] | > 1 µM |
| CN1CCCC(NC(=O)c2ccc(-c3ccc4c(C=O)c(O)ccc4c3)s2)C1 (stereo not drawn) [Compound 78] | < 0.1 µM |
